US10670605B2, “Cysteine reactive probes and uses thereof” (The Scripps Research Institute, priority 2015, dated 2020)

How the values were obtained:
Experiment in all cases: Competitive isoTOP-ABPP, cell lysates;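 on isoTOP-ABPP reactivity profile ratio, P68036 C86: Heavy/light ratio DMSO over fragment-treated so higher means more cysteine engagement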;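 on isoTOP-ABPP reactivity profile ratio, Q15084 C190: Heavy/light ratio DMSO over fragment-treated so higher means more cysteine engagement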
Assay type in all cases: binding
[1] = target: UBE2L3 C86 (P68036) (Homo sapiens, UniProt P68036); details: 500 μm;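 on isoTOP-ABPP reactivity profile ratio, P68036 C86: Heavy/light ratio DMSO over fragment-treated so higher means more cysteine engagement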
[2] = target: T1, PDIA6 C190 (Q15084) (Homo sapiens, UniProt Q15084); details: 500 μm;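 on isoTOP-ABPP reactivity profile ratio, Q15084 C190: Heavy/light ratio DMSO over fragment-treated so higher means more cysteine engagement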
T1 sequence (Q15084 20-440): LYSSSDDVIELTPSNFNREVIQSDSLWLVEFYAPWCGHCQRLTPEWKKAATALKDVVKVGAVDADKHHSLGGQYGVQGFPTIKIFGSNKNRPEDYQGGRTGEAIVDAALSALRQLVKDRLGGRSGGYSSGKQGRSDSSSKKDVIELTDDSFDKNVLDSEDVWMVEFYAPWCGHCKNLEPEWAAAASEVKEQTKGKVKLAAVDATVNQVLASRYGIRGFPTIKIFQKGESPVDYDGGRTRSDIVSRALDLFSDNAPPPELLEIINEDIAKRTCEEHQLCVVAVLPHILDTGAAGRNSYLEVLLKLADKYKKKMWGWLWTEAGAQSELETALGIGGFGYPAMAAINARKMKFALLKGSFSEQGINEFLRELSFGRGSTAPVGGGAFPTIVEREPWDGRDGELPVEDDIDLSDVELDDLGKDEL

[3] = target: XPO1 C34 (O14980) (Homo sapiens, UniProt O14980); details: 500 μm
[4] = target: SAMHD1 C522 (Q9Y3Z3) (Homo sapiens, UniProt Q9Y3Z3); details: 500 μm
[5] = target: DCUN1D1 C115 (Q96GG9) (Homo sapiens, UniProt Q96GG9); details: 500 μm
[6] = target: GSTP1 C48 (P09211) (Homo sapiens, UniProt P09211); details: 500 μm
[7] = target: STAT3 C259 (P40763) (Homo sapiens, UniProt P40763); details: 500 μm
[8] = target: GNB2L1 C182 (P63244) (Homo sapiens, UniProt P63244); details: 500 μm
[9] = target: XPO1 C528 (O14980) (Homo sapiens, UniProt O14980); details: 500 μm
[10] = target: T2, MGMT C150 (P16455) (Homo sapiens, UniProt P16455); details: 500 μm, in-vitro_ramos
T2 sequence (P16455 1-207): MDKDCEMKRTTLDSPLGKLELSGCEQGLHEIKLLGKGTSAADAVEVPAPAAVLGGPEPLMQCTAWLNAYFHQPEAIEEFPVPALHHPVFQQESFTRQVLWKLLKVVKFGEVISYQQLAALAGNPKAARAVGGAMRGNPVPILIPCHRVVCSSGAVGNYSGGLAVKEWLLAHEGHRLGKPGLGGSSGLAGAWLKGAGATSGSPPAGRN

[11] = target: SMARCC2 C145 (Q8TAQ2) (Homo sapiens, UniProt Q8TAQ2); details: 500 μm

Structure (SMILES) | isoTOP-ABPP reactivity ratio, P68036_C86 ([1]; in-vitro_ramos) | isoTOP-ABPP reactivity ratio, P68036_C86 ([1]; in-vitro_ramos_231) | isoTOP-ABPP reactivity ratio, Q15084_C190 ([2]; in-vitro_ramos) | isoTOP-ABPP reactivity ratio, Q15084_C190 ([2]; in-vitro_ramos_231) | isoTOP-ABPP reactivity ratio, O14980_C34 ([3]; in-vitro_ramos) | isoTOP-ABPP reactivity ratio, O14980_C34 ([3]; in-vitro_ramos_231) | isoTOP-ABPP reactivity ratio, Q96GG9_C115 ([5]; in-vitro_ramos) | isoTOP-ABPP reactivity ratio, P09211_C48 ([6]; in-vitro_ramos) | isoTOP-ABPP reactivity ratio, P09211_C48 ([6]; in-vitro_ramos_231) | isoTOP-ABPP reactivity ratio, P40763_C259 ([7]; in-vitro_ramos_231) | isoTOP-ABPP reactivity ratio, P63244_C182 ([8]; in-vitro_ramos_231) | isoTOP-ABPP reactivity ratio, O14980_C528 ([9]; in-vitro_ramos) | isoTOP-ABPP reactivity ratio, O14980_C528 ([9]; in-vitro_ramos_231) | isoTOP-ABPP reactivity ratio, P16455_C150 [10] | isoTOP-ABPP reactivity ratio, Q8TAQ2_C145 ([11]; in-vitro_ramos) | isoTOP-ABPP reactivity ratio, Q8TAQ2_C145 ([11]; in-vitro_ramos_231) | isoTOP-ABPP reactivity profile ratio, P68036_C86 ([1]; in-vitro_ramos) | isoTOP-ABPP reactivity profile ratio, P68036_C86 ([1]; in-vitro_ramos_231) | isoTOP-ABPP reactivity profile ratio, Q15084_C190 ([2]; in-vitro_ramos) | isoTOP-ABPP reactivity profile ratio, Q15084_C190 ([2]; in-vitro_ramos_231) | also measured
C=CC(=O)N(Cc1cccnc1)c1cc(C(F)(F)F)cc(C(F)(F)F)c1 [compound 31] | 1.3 | 1.7 | 1.2 | 1.3 | 0.8 | 1.0 | 0.9 | 1.3 | 2.0 | 1.7 | 1.3 | 3.2 | 5.2 | 2.8 | 0.9 | 1.1 |  |  |  |  | isoTOP-ABPP reactivity ratio, Q9Y3Z3_C522 ([4]; in-vitro_ramos_231): 1.5
CC(C)(C)c1cc(NC(=O)CCl)on1 [compound 32] | 0.9 | 1.1 | 20.0 | 20.0 | 1.0 | 1.2 | 0.9 | 1.4 | 1.9 | 10.2 | 1.9 | 1.2 | 1.7 | 20.0 | 20.0 | 20.0 |  |  |  |  | isoTOP-ABPP reactivity ratio, Q9Y3Z3_C522 ([4]; in-vitro_ramos): 1.8
O=C(CCl)Nc1ccc(-c2ccccc2)cc1 [compound 52] |  |  |  |  |  |  |  |  |  |  |  |  |  |  |  |  | 1.3 | 0.8 | 1.9 | 1.0 | isoTOP-ABPP reactivity profile ratio, O14980_C34 ([3]; in-vitro_ramos): 1.1; isoTOP-ABPP reactivity profile ratio, O14980_C34 ([3]; in-vitro_ramos_231): 1.0; isoTOP-ABPP reactivity profile ratio, Q9Y3Z3_C522 ([4]; in-vitro_ramos_231): 1.2; isoTOP-ABPP reactivity profile ratio, Q96GG9_C115 ([5]; in-vitro_ramos): 1.0; isoTOP-ABPP reactivity profile ratio, P09211_C48 ([6]; in-vitro_ramos): 1.9; isoTOP-ABPP reactivity profile ratio, P09211_C48 ([6]; in-vitro_ramos_231): 1.0; isoTOP-ABPP reactivity profile ratio, P40763_C259 ([7]; in-vitro_ramos_231): 2.2; isoTOP-ABPP reactivity profile ratio, P63244_C182 ([8]; in-vitro_ramos_231): 1.0; isoTOP-ABPP reactivity profile ratio, O14980_C528 ([9]; in-vitro_ramos_231): 1.3; isoTOP-ABPP reactivity profile ratio, P16455_C150 [10]: 2.2; isoTOP-ABPP reactivity profile ratio, Q8TAQ2_C145 ([11]; in-vitro_ramos): 1.8; isoTOP-ABPP reactivity profile ratio, Q8TAQ2_C145 ([11]; in-vitro_ramos_231): 0.9
C=CC(=O)N1CCC(Cc2ccccc2)CC1 [compound 53] |  |  |  |  |  |  |  |  |  |  |  |  |  |  |  |  | 1.0 | 1.0 | 1.0 | 1.0 | isoTOP-ABPP reactivity profile ratio, O14980_C34 ([3]; in-vitro_ramos): 1.0; isoTOP-ABPP reactivity profile ratio, O14980_C34 ([3]; in-vitro_ramos_231): 0.9; isoTOP-ABPP reactivity profile ratio, Q9Y3Z3_C522 ([4]; in-vitro_ramos): 0.7; isoTOP-ABPP reactivity profile ratio, Q96GG9_C115 ([5]; in-vitro_ramos): 0.9; isoTOP-ABPP reactivity profile ratio, Q96GG9_C115 ([5]; in-vitro_ramos_231): 1.0; isoTOP-ABPP reactivity profile ratio, P09211_C48 ([6]; in-vitro_ramos): 1.2; isoTOP-ABPP reactivity profile ratio, P09211_C48 ([6]; in-vitro_ramos_231): 2.3; isoTOP-ABPP reactivity profile ratio, P40763_C259 ([7]; in-vitro_ramos): 1.9; isoTOP-ABPP reactivity profile ratio, P63244_C182 ([8]; in-vitro_ramos): 0.8; isoTOP-ABPP reactivity profile ratio, P63244_C182 ([8]; in-vitro_ramos_231): 0.9; isoTOP-ABPP reactivity profile ratio, O14980_C528 ([9]; in-vitro_ramos): 0.8; isoTOP-ABPP reactivity profile ratio, P16455_C150 [10]: 1.1; isoTOP-ABPP reactivity profile ratio, Q8TAQ2_C145 ([11]; in-vitro_ramos): 1.2
